Patent US20130213885A1, “FORWARD OSMOSIS SYSTEM AND PROCESS” (KING ABDULLAH UNIVERSITY OF SCIENCE AND TECHNOLOGY, priority 2012, published 2013)

Experiment: Laboratory-scale forward osmosis performance test (water flux, salt flux)
Settings: AL-DS
Protocol: Prior to use, CTA1 and CTA2 membranes were soaked in water for 30 minutes, and other membranes were soaked in isopropanol for 30 minutes, followed by a soaking in deionized (DI) water for 10 hours.
The specially designed cross-flow membrane cell (301) has a channel (302, 303) on each side of the membrane (304), which allows the feed solution (305) and draw solution (306) to flow through separately. Each channel has dimensions of 2.8 mm, 50 mm, and 100 mm for channel height, length, and width, respectively. Co-current flow was used with a flow rate in each channel that was controlled by a peristaltic pump (307, 308) and a flow meter (309, 310). The cross-flow rates for the feed and draw solution were both maintained at […]. A heat exchanger (311) was used to maintain the feed solution (305) and draw solution (306) at 23° C. A stirrer (318) on the feed side was also used. A weighing scale (312) connected to a computer (313) was used to monitor the weight of water permeating through the membrane from the feed to the draw side, from which the water flux was calculated. A conductivity meter (314) in the feed side was used to determine the salt concentration and thus the salt flux. A draw side conductivity meter (315) also exists to take measurements on the draw side. The laboratory scale unit (300) also comprises a feed-side thermistor (316) and a draw-side thermistor (317).

[Cl-].[Na+] [NaCl, sodium chloride]
water flux relative to sodium lignin sulfonate as draw solute (CTA1 and CTA2 membranes, feed deionized water, different osmotic pressures): doubles
salt flux relative to sodium lignin sulfonate as draw solute (CTA1 membrane, feed deionized water): about four times
salt flux relative to sodium lignin sulfonate as draw solute (CTA2 membrane, feed deionized water): about the same range
water flux, relatively stable stage (RO1 membrane, draw solute at 84 bar, feed DI, after first 10 minutes): around 4 LMH
